Measurements reported in ChEMBL document CHEMBL1201862, “PubChem BioAssay data set” (2004).
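Growth conditions: 96-well plates. Treatment: test compound, 48 hours, 5 concentrations. Analysis: linear interpolation between bracketing concentrations; unreached endpoints set to highest concentration. GI50: concentration for 50% inhibition of growth.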 Active and inactive are the calls of the source. No stated cut-off is given here; in the data, active = GI50 up to about 1.1 µM and inactive = higher.

What was measured:
Test in all cases: growth of human tumour cells (NCI), 48 h
786-0 = test system: 786-0
A498 = test system: A498
A549 = test system: A549
ACHN = test system: ACHN
BT-549 = test system: BT-549
CAKI-1 = test system: CAKI-1
CCRF-CEM = test system: CCRF-CEM
COLO 205 = test system: COLO 205
DU-145 = test system: DU-145
EKVX = test system: EKVX
HCC 2998 = test system: HCC 2998
HCT-116 = test system: HCT-116
HCT-15 = test system: HCT-15
HL-60 = test system: HL-60
HOP-62 = test system: HOP-62
HOP-92 = test system: HOP-92
HT-29 = test system: HT-29
Hs-578T = test system: Hs-578T
IGROV-1 = test system: IGROV-1
K562 = test system: K562
KM12 = test system: KM12
LOX IMVI = test system: LOX IMVI
M14 = test system: M14
MCF7 = test system: MCF7
MDA-MB-231 = test system: MDA-MB-231
MDA-MB-435 = test system: MDA-MB-435
MDA-N = test system: MDA-N
MOLT-4 = test system: MOLT-4
Malme-3M = test system: Malme-3M
NCI-H226 = test system: NCI-H226
NCI-H23 = test system: NCI-H23
NCI-H460 = test system: NCI-H460
NCI-H522 = test system: NCI-H522
NCI/ADR-RES = test system: NCI/ADR-RES
OVCAR-3 = test system: OVCAR-3
OVCAR-4 = test system: OVCAR-4
OVCAR-5 = test system: OVCAR-5
OVCAR-8 = test system: OVCAR-8
PC-3 = test system: PC-3
RPMI-8226 = test system: RPMI-8226
RXF 393 = test system: RXF 393
SF-268 = test system: SF-268
SF-295 = test system: SF-295
SF-539 = test system: SF-539
SK-MEL-28 = test system: SK-MEL-28
SK-MEL-2 = test system: SK-MEL-2
SK-MEL-5 = test system: SK-MEL-5
SK-OV-3 = test system: SK-OV-3
SN12C = test system: SN12C
SNB-19 = test system: SNB-19
SNB-75 = test system: SNB-75
SW-620 = test system: SW-620
T47D = test system: T47D
TK-10 = test system: TK-10
U-251 = test system: U-251
UACC-257 = test system: UACC-257
UACC-62 = test system: UACC-62
UO-31 = test system: UO-31
SR = test system: SR

[O-][n+]1onc(-c2ccccc2)c1CN1CCOCC1
GI50 (786-0): > 100 µM (inactive) | GI50 (A498): 61.9 µM (inactive) | GI50 (A549): > 100 µM (inactive) | GI50 (ACHN): > 100 µM (inactive) | GI50 (BT-549): > 100 µM (inactive) | GI50 (CAKI-1): > 100 µM (inactive) | GI50 (CCRF-CEM): 22.8 µM (inactive) | GI50 (COLO 205): > 100 µM (inactive) | GI50 (DU-145): > 100 µM (inactive) | GI50 (EKVX): > 100 µM (inactive) | GI50 (HCC 2998): > 100 µM (inactive) | GI50 (HCT-116): > 100 µM (inactive) | GI50 (HCT-15): 72.9 µM | GI50 (HL-60): 20.7 µM (inactive) | GI50 (HOP-62): > 100 µM (inactive) | GI50 (HOP-92): > 100 µM (inactive) | GI50 (HT-29): > 100 µM (inactive) | GI50 (Hs-578T): 68.1 µM (inactive) | GI50 (IGROV-1): 80 µM (inactive) | GI50 (K562): 51.2 µM (inactive) | GI50 (KM12): > 100 µM (inactive) | GI50 (LOX IMVI): 71.8 µM (inactive) | GI50 (M14): > 100 µM (inactive) | GI50 (MCF7): > 100 µM (inactive) | GI50 (MDA-MB-231): > 100 µM (inactive) | GI50 (MDA-MB-435): > 100 µM (inactive) | GI50 (MDA-N): > 100 µM (inactive) | GI50 (MOLT-4): 23.3 µM (inactive) | GI50 (Malme-3M): > 100 µM (inactive) | GI50 (NCI-H226): > 100 µM (inactive) | GI50 (NCI-H23): > 100 µM (inactive) | GI50 (NCI-H460): > 100 µM (inactive) | GI50 (NCI-H522): 26.4 µM (inactive) | GI50 (NCI/ADR-RES): > 100 µM (inactive) | GI50 (OVCAR-3): 93.1 µM (inactive) | GI50 (OVCAR-4): 10.4 µM (inactive) | GI50 (OVCAR-5): > 100 µM (inactive) | GI50 (OVCAR-8): > 100 µM (inactive) | GI50 (PC-3): 77.8 µM (inactive) | GI50 (RPMI-8226): 76.6 µM (inactive) | GI50 (RXF 393): > 100 µM (inactive) | GI50 (SF-268): > 100 µM (inactive) | GI50 (SF-295): > 100 µM (inactive) | GI50 (SF-539): > 100 µM (inactive) | GI50 (SK-MEL-28): > 100 µM (inactive) | GI50 (SK-MEL-2): > 100 µM (inactive) | GI50 (SK-MEL-5): > 100 µM (inactive) | GI50 (SK-OV-3): > 100 µM (inactive) | GI50 (SN12C): > 100 µM (inactive) | GI50 (SNB-19): > 100 µM (inactive) | GI50 (SNB-75): > 100 µM (inactive) | GI50 (SW-620): > 100 µM (inactive) | GI50 (T47D): 71.6 µM (inactive) | GI50 (TK-10): > 100 µM (inactive) | GI50 (U-251): > 100 µM (inactive) | GI50 (UACC-257): > 100 µM (inactive) | GI50 (UACC-62): 68.1 µM (inactive) | GI50 (UO-31): 77.1 µM (inactive)

COc1ccccc1C(=O)N(C)c1ccc(Cl)c(C(=O)OC(C)C)c1
GI50 (786-0): 36.2 µM (inactive) | GI50 (A498): 70.6 µM (inactive) | GI50 (A549): 49.9 µM (inactive) | GI50 (ACHN): 84.9 µM (inactive) | GI50 (BT-549): 33 µM (inactive) | GI50 (CAKI-1): > 100 µM (inactive) | GI50 (CCRF-CEM): > 100 µM (inactive) | GI50 (COLO 205): 42.9 µM (inactive) | GI50 (DU-145): 42.5 µM (inactive) | GI50 (EKVX): 44.2 µM (inactive) | GI50 (HCC 2998): 27 µM (inactive) | GI50 (HCT-116): 40.3 µM (inactive) | GI50 (HCT-15): 39.5 µM | GI50 (HOP-92): 48.2 µM (inactive) | GI50 (HT-29): > 100 µM (inactive) | GI50 (Hs-578T): > 100 µM (inactive) | GI50 (IGROV-1): > 100 µM (inactive) | GI50 (KM12): 23.3 µM (inactive) | GI50 (LOX IMVI): 87.3 µM (inactive) | GI50 (M14): 68.9 µM (inactive) | GI50 (MCF7): 62.4 µM (inactive) | GI50 (MDA-MB-231): > 100 µM (inactive) | GI50 (MDA-MB-435): 29.4 µM (inactive) | GI50 (MDA-N): 40.8 µM (inactive) | GI50 (MOLT-4): 39.7 µM (inactive) | GI50 (Malme-3M): > 100 µM (inactive) | GI50 (NCI-H226): > 100 µM (inactive) | GI50 (NCI-H23): 49.2 µM (inactive) | GI50 (NCI-H460): 42 µM (inactive) | GI50 (NCI-H522): 39.5 µM (inactive) | GI50 (NCI/ADR-RES): 52.1 µM (inactive) | GI50 (OVCAR-3): 71.3 µM (inactive) | GI50 (OVCAR-4): 35.6 µM (inactive) | GI50 (OVCAR-5): > 100 µM (inactive) | GI50 (OVCAR-8): > 100 µM (inactive) | GI50 (PC-3): 31.8 µM (inactive) | GI50 (RPMI-8226): 39.4 µM (inactive) | GI50 (SF-268): 95.9 µM (inactive) | GI50 (SF-295): 30.6 µM (inactive) | GI50 (SF-539): > 100 µM (inactive) | GI50 (SK-MEL-28): 49.7 µM (inactive) | GI50 (SK-MEL-2): 61.5 µM (inactive) | GI50 (SK-MEL-5): 22.8 µM (inactive) | GI50 (SK-OV-3): 45.5 µM (inactive) | GI50 (SN12C): > 100 µM (inactive) | GI50 (SNB-19): > 100 µM (inactive) | GI50 (SNB-75): 30.7 µM (inactive) | GI50 (SW-620): 46.6 µM (inactive) | GI50 (T47D): 23.8 µM (inactive) | GI50 (TK-10): 34 µM (inactive) | GI50 (U-251): 67.8 µM (inactive) | GI50 (UACC-257): 23.1 µM (inactive) | GI50 (UACC-62): 48.8 µM (inactive) | GI50 (UO-31): 28.7 µM (inactive)

O=c1c2cc(O)c(O)cc2oc2cc(O)c(C3OC(CO)C(O)C(O)C3O)c(O)c12 (centres undefined)
GI50 (786-0): > 100 µM (inactive) | GI50 (A498): > 100 µM (inactive) | GI50 (A549): > 100 µM (inactive) | GI50 (ACHN): > 100 µM (inactive) | GI50 (BT-549): > 100 µM (inactive) | GI50 (CAKI-1): > 100 µM (inactive) | GI50 (CCRF-CEM): > 100 µM (inactive) | GI50 (COLO 205): > 100 µM (inactive) | GI50 (EKVX): > 100 µM (inactive) | GI50 (HCC 2998): > 100 µM (inactive) | GI50 (HCT-116): > 100 µM (inactive) | GI50 (HCT-15): > 100 µM | GI50 (HL-60): > 100 µM (inactive) | GI50 (HOP-62): > 100 µM (inactive) | GI50 (HOP-92): > 100 µM (inactive) | GI50 (HT-29): > 100 µM (inactive) | GI50 (Hs-578T): > 100 µM (inactive) | GI50 (IGROV-1): > 100 µM (inactive) | GI50 (K562): > 100 µM (inactive) | GI50 (KM12): > 100 µM (inactive) | GI50 (LOX IMVI): > 100 µM (inactive) | GI50 (M14): > 100 µM (inactive) | GI50 (MCF7): > 100 µM (inactive) | GI50 (MDA-MB-231): > 100 µM (inactive) | GI50 (MDA-MB-435): > 100 µM (inactive) | GI50 (MDA-N): > 100 µM (inactive) | GI50 (MOLT-4): > 100 µM (inactive) | GI50 (Malme-3M): > 100 µM (inactive) | GI50 (NCI-H226): > 100 µM (inactive) | GI50 (NCI-H23): > 100 µM (inactive) | GI50 (NCI-H460): > 100 µM (inactive) | GI50 (NCI-H522): > 100 µM (inactive) | GI50 (NCI/ADR-RES): > 100 µM (inactive) | GI50 (OVCAR-3): > 100 µM (inactive) | GI50 (OVCAR-4): > 100 µM (inactive) | GI50 (OVCAR-5): > 100 µM (inactive) | GI50 (OVCAR-8): > 100 µM (inactive) | GI50 (PC-3): > 100 µM (inactive) | GI50 (RPMI-8226): > 100 µM (inactive) | GI50 (RXF 393): > 100 µM (inactive) | GI50 (SF-268): > 100 µM (inactive) | GI50 (SF-295): > 100 µM (inactive) | GI50 (SF-539): > 100 µM (inactive) | GI50 (SK-MEL-28): > 100 µM (inactive) | GI50 (SK-MEL-2): > 100 µM (inactive) | GI50 (SK-MEL-5): > 100 µM (inactive) | GI50 (SK-OV-3): > 100 µM (inactive) | GI50 (SNB-19): > 100 µM (inactive) | GI50 (SNB-75): > 100 µM (inactive) | GI50 (SR): > 100 µM (inactive) | GI50 (SW-620): > 100 µM (inactive) | GI50 (T47D): > 100 µM (inactive) | GI50 (TK-10): > 100 µM (inactive) | GI50 (U-251): > 100 µM (inactive) | GI50 (UACC-257): > 100 µM (inactive) | GI50 (UACC-62): > 100 µM (inactive) | GI50 (UO-31): > 100 µM (inactive)
